Measured values taken from patent US10927136B2, “Phosphorus prodrugs of pyrazolo-substituted pyrimidine sGC stimulators” (Cyclerion Therapeutics, Inc., priority 2016, dated 2021).

Legend:
[1] = Ex-vivo rat intestinal fluid stability assay; format: in vitro ADME; set-up: half-life: dose or concentration left out as unconfirmed; conditions: 37° C.; for prodrug converted into its parent drug / cleaved: after 60 minutes of incubation; for half-life: rat intestinal (jejunum) fluid, read-out: disappearance half-life (T1/2)
Method: Phosphate prodrugs disclosed herein were designed to be cleaved by alkaline phosphatase(s) that are present on the apical brush-border membranes of the intestine, after which the more hydrophobic parent compound is readily absorbed. Phosphatases are also present in the liver and in the systemic circulation. In order to test the speed of cleavage of the prodrug into the parent drug, […] solutions of each of the test compounds were incubated in rat intestinal (jejunum) fluid. Samples were taken at times=0, 5, 15, 30 and 60 min and the mixtures were quenched by the addition of acetonitrile containing an internal standard. Samples were analyzed by full scan LC/MS. The following protocol was used:
10 mM DMSO stock solutions were thawed or prepared for the positive control (Enalapril) and each test article. Internal standard (IS) crash solution in acetonitrile (ACN) with 20 ng/ml of Compound Z, depicted below, was prepared. Stock (250 uM) was prepared from 10 mM in 50/50 acetonitrile/H2O. Rat intestinal fluid vials were thawed in a water bath at rt.
In a 96-well, 1 ml plate, 48 uL of rat intestinal fluid was aliquoted in triplicate for each time point. The t0 (“0 min”) time point was prepared separately by adding 450 ul of IS crash solution to 48 ul of intestinal fluid, then adding 2 uL of test compound. 2 ul of the 250 uM substock was added to initiate the reaction at 5 min, 15 min, 30 min, and 60 min. The plate prepared in the above steps was covered with a plastic or foil seal and was set in the 37° C. incubator, lightly shaking. For each time point, 450 ul of IS crash solution was added to quench the reaction. The plates were centrifuged at 4000 RPM for 10 minutes at 4° C. 50 ul of supernatant was transferred into 50 ul of H2O and analyzed using LC/MS.
The disappearance of the prodrug and the conversion to the parent were monitored over time.

[2] = Dog PK following IV and oral dosing; format: in vivo, male Beagle dogs; set-up: half-life / clearance / AUC(0-inf): dose or concentration left out as unconfirmed
Method: PK in dogs was determined following IV and oral dosing.
For the oral (PO) experiments, two groups of 5 male Beagle dogs each were used. […] IV doses were administered through an indwelling catheter in the cephalic vein. Following dose administration, the catheter was flushed with ca. 3 mL of saline. Oral suspension doses were delivered to the stomach using a syringe and gavage tube. Following oral dosage administration, the gavage tube was flushed with approximately 10 mL of water to ensure complete delivery of the full dose.
Plasma and urine samples were collected as follows: for the PO experiments, samples were collected at 15 min, 30 min, 1 hour, 2 hours, 3 hours, 4 hours, 6 hours, 8 hours, 24 hours, 32 hours and 48 hours post-dosing; for the IV experiments, samples were collected at 2 min, 5 min, 15 min, 30 min, 1 hour, 2 hours, 3 hours, 4 hours, 6 hours, 8 hours, 24 hours, 32 hours and 48 hours post-dosing. Blood samples (2 mL) were collected from the jugular, cephalic or saphenous veins. These samples were kept on ice until processed for plasma. Blood samples were centrifuged at 3200 rpm for 10 minutes at approximately 5° C. within 1 hour of collection. Plasma was split into two approximately equal aliquots, and directly transferred to a 96-well plate tube (1.1 mL). Plug caps were placed on the tubes and the tubes frozen at approximately −70° C. and stored until analysis.
Urine was collected from each animal by diversion from a urine collection pan placed beneath the cage of each animal into an appropriate collection container, surrounded by wet ice or ice packs throughout the collection. The total volume of urine collected at each interval was measured and recorded and a single 10 mL aliquot was collected and stored frozen at approximately −70° C. until analysis.
Plasma and urine were collected and analyzed for the presence of Compound I-1 and Intermediate 3 derived from Compound I-1.
Intermediate 3, Compound I-1 and the internal standard (IS, Compound Z) were extracted from plasma by precipitation. Samples were analyzed using liquid chromatography (LC) with tandem mass spectrometric detection (MS/MS) using electrospray ionization. The standard curve range was from 0.1 to 400 ng/mL.
Thawed plasma samples and the required amount of plasma for standards, blanks and dilutions. Prepared crash solution: room temp ACN containing 1 ng/mL Compound Z as Internal Standard. Created a 1× mixed (Intermediate 3 and Compound I-1) standard curve by diluting the 100× stocks (5 uL of each 100× standard into 490 uL of plasma). Transferred 50 uL of each plasma sample/dilution, standard, or blank. Added 200 uL of the crash solution containing IS. Vortexed for 5 minutes. Centrifuged at 16,000 g at room temperature for 10 min. Transferred 200 uL of each supernatant to a plate. Dried under nitrogen in a TurboVap at 55° C. Resuspended each sample in 50 uL of 0.1% Formic Acid, covered and vortexed. Analyzed by LC-MS/MS.

[3] = male, Beagle, plasma, dog PO, Intermediate 3 in PEG400 capsules (2 mg/kg)
[4] = male, Beagle, plasma, dog, Compound I-1 0.36 mpk IV in PBS, analyte Compound I-1

| SMILES | prodrug converted into its parent drug / cleaved [1] | half-life [1] [min] | Cmax/C24 (ratio) ([2]; dog PO, Intermediate 3 in PEG400 capsules (2 mg/kg)) | AUC [2, 3] [ng·h/mL] | Cmax [2, 3] [ng/mL] | Tmax [2, 3] [h] | bioavailability ([2]; male, Beagle, plasma, dog PO, Intermediate 3 in PEG400 capsules (2 mg/kg), read-out: Bioavailability (% F)) [%] | prodrug converted into its parent drug ([1]; after 30 minutes of incubation) | Vol. of Dist ([2]; dog, Compound I-1 0.36 mpk IV in PBS, analyte Compound I-1) [L/kg] | average conversion to the parent ([2]; dog, Compound I-1 administered IV) [%] | AUC compared with parent dosed in PEG ([2]; dog, Compound I-1 dosed IV in PBS) | prodrug observed in plasma ([2]; dog, after PO administration of Compound I-1) | prodrug found in urine ([2]; dog, after dosing of Compound I-1) | half-life ([2]; male, Beagle, dog, plasma, iv, Compound I-1 IV in PBS, analyte Compound I-1) [min] | AUC(0-inf) [2, 4] [ng·h/mL] | Cmax [2, 4] [ng/mL] | clearance [2, 4] [mL/min/kg] |
| --- | --- | --- | --- | --- | --- | --- | --- | --- | --- | --- | --- | --- | --- | --- | --- | --- | --- |
| O=P(O)(O)OCOC(CNc1nc(-c2cc(-c3ccon3)n(Cc3ccccc3F)n2)ncc1F)(C(F)(F)F)C(F)(F)F [Compound I-4] | More than 99% | 9 |  |  |  |  |  |  |  |  |  |  |  |  |  |  |  |
| OC(CNc1nc(-c2cc(-c3ccon3)n(Cc3ccccc3F)n2)ncc1F)(C(F)(F)F)C(F)(F)F [Intermediate 3] |  |  | 3.6 ± 1.1 | 5190 ± 1410 | 307 ± 116 | 1.5 ± 1.2 | 64 ± 12.5 |  |  |  |  |  |  |  |  |  |  |
| O=P(O)(O)OC(CNc1nc(-c2cc(-c3ccon3)n(Cc3ccccc3F)n2)ncc1F)(C(F)(F)F)C(F)(F)F [Compound I-1] | about 95% | 16 |  |  |  |  |  | About 80% | 0.09 ± 0.03 | 95 | comparable AUC to Intermediate 3 | Low levels | Negligible amounts | ~15 | 1550 ± 601 | 5110 ± 2150 | 8.3 ± 3.1 |
